Results on three compounds are retold here after patent US12458624B2, “Deuterium-enriched substituted phenoxyphenyl acetic acids and acylsulfonamides” (priority 2019, dated 2025).

One test deals with male mongrel dogs. Briefly: Endothelin-1-induced changes in diastolic and urethral pressures in the anesthetized male dog. It counts as in vivo. How it is done: Methodology for Determining Whether an ET-1 Receptor Selective Antagonist could Inhibit the ET-1 Mediated Prostatic Urethral Contractions in a Mongrel Dog Model:
On separate days, two fasted male mongrel dogs (from commercial suppliers) weighing 11.0 and 12.4 kilograms (kg), are anesthetized with sodium pentobarbital at 35 mg/kg (i.v.) to effect, followed by 4 mg/kg/hr (i.v.) infusion. A cuffed endotracheal tube is inserted and each animal is ventilated with room air using a positive displacement large animal ventilator at a rate of 18 breaths/minute and an average tidal volume of 18 mL/kg body weight. Body temperature is maintained with a heating pad and heat lamp using a temperature controller and esophageal probe. Two catheters are placed in the aorta via the femoral arteries (one in each artery) for administration of endothelin or phenylephrine and for continuous direct monitoring of blood pressure and heart rate using a Statham blood pressure transducer (Spectramed) and a computer system (Modukar Instruments, Inc.). Two other catheters are placed in the vena cava via the femoral veins (one catheters in each vein) for administration of pentobarbital and N-(4-isopropyl (d7)-benzenesulfonyl)-α-(4-carboxy-2-n-propylphenoxy)-3,4-methylenedioxyphenylacetamide dipotassium salt.
A supra-pubic incision approximately one-half inch lateral to the penis is made to expose the ureters, urinary bladder, prostate, and urethra. The dome of the bladder is retracted to facilitate dissection of the ureters. The ureters are cannulated with PE 90 and tied off to the bladder. Umbilical tape is passed beneath the urethra at the bladder neck and another piece of tape is placed approximately 1-2 cm distal to the prostate. The bladder is incised and a Micro-tip catheter transducer is advanced into the urethra. The neck of the bladder is ligated with the umbilical tape to hold the transducer. The bladder incision is sutured with 3-0 silk (purse string suture). The transducer is withdrawn until it is positioned in the prostatic urethra. The position of the Micro-tip catheter is verified by gently squeezing the prostate and noting the large change in urethral pressure prior to ligating the distal urethra.
Phenylephrine (10 μg/kg, intra-arterial) is administered and pressor effects on diastolic blood pressure (DBP) and intra-urethral pressure (IUP) is noted. When blood pressure returned to baseline, endothelin-1 (1 nmole/kg, intra-arterial) is administered. Changes in DBP and IUP are monitored for one hour and an ET-1 selective endothelin antagonist, such as the deuterated compound, N-(4-isopropyl(d7)benzenesulfonyl)-α-(4-carboxy-2-n-propylphenoxy)-3,4-methylenedioxyphenyl-acetamide dipotassium salt (30 mg/kg, intra-venous), is administered. […] Phenylephrine is administered at the end of experiment to verify specificity for ET-1 blockade. The dogs are euthanized with an overdose of pentobarbital followed by saturated KCl.
The drugs utilized in the experiment described above are: • (1) Phenylephrine, HCl (PE) (Sigma Chemical Co.) is given at a volume of 0.05 mL/kg; • (2) Endothelin-1 (ET-1) (Human, Porcine, Canine, rat, Mouse, Bovine) is given at a volume of 0.05 mL/kg; • (3) ET-1 selective antagonist, such as the deuterated compound N-(4-isopropyl(d7)benzenesulfonyl)-α-(4-carboxy-2-n-propyl-[…]phenoxy)-3,4-methylenedioxyphenyl-acetamide dipotassium salt, is given at a volume of 0.3 mL/kg. • All drugs are dissolved in isotonic saline solution.

For test [1], the system named is canine model of renovascular hypertension. As to conditions: J. Hypertens. 1998, 16, 835-841; cited from earlier work.
The next test has as its system rat prostate. In words: In situ rat prostate, ET-1 induced contraction. It counts as in vivo, Sprague-Dawley rats. As to conditions: ET-1 0.3 nmoles/kg intra-arterial; antagonist IA five minutes before third ET-1 injection. How it is done:
Male Sprague-Dawley rats weighing 300-400 grams are anesthetized with urethane (1.75 g/kg, ip), a tracheal cannula is inserted, and the femoral artery is cannulated. Core body temperature is maintained at 37° C. A 4-5 cm midline abdominal incision is made to expose the bladder and prostate. The prostate is separated from the bladder and surrounding capsule by blunt dissection with a forcep. A length of surgical silk is gently secured around the anterior tips of the prostate lobes. A second length of surgical silk attached to an atraumatic needle is passed through and tied to the base of the prostate approximately 10-12 mm posterior to the first tie. The posterior ligature is secured to an anchor post whereas the anterior ligature is connected to a Grass FT03 transducer and maintained at a tension of 1 g. Signals from the transducer are amplified and recorded on a polygraph (Hewlett-Packard 8805B amplifiers and 7758 recorder, Palo Alto, CA). After equilibrating for over 15 min, the rats are administered pretreatment drugs (atropine 1 mg/kg, (+) propranolol 1 mg/kg) 10 min apart through the intra-arterial (IA) cannula. […] The response of the prostate to ET-1 is quantified by measuring the change from baseline tension to the peak of the response during the five-minute period after the third ET-1 injection. […]

[2] abbreviates: ET-1 1 nmole/kg intra-arterial, before antagonist, average.
Setting [3] is: 30 mg/kg i.v., ET-1 1 nmole/kg intra-arterial challenge ten to 15 minutes after administration.
Setting [4] is: PE 10 μg/kg intra-arterial after antagonist 30 mg/kg i.v., one dog.

As to `CC[C@H](C)[C@H](NC(=O)[C@H](CC(=O)O)NC(=O)[C@H](CC(C)C)NC(=O)[C@H](Cc1c[nH]cn1)NC(=O)[C@@H]1CSSC[C@H](N)C(=O)N[C@@H](CO)C(=O)N[C@H]2CSSC[C@H](NC(=O)[C@H](CCC(=O)O)NC(=O)[C@H](CCCCN)NC(=O)[C@H](CC(=O)O)NC(=O)[C@H](CCSC)NC(=O)[C@H](CC(C)C)NC(=O)[C@H](CO)NC(=O)[C@H](CO)NC2=O)C(=O)N[C@@H](C(C)C)C(=O)N[C@@H](Cc2ccc(O)cc2)C(=O)N[C@@H](Cc2ccccc2)C(=O)N1)C(=O)N[C@H](C(=O)N[C@@H](Cc1c[nH]c2ccccc12)C(=O)O)[C@@H](C)CC` [ET-1, reference compound], in the test with male mongrel dogs (setting [2]), the “increase in IUP” value is reported as 15 mmHg and the “peak pressor effect on DBP” value came to 25 mmHg. For the same compound, the “decrease in DBP (initial depressor effect)” value in the test on male mongrel dogs (ET-1 1 nmole/kg intra-arterial, before antagonist, average of both dogs) was 15 mmHg.

As for `CCCCc1nc(Cl)c(CO)n1Cc1ccc(-c2ccccc2-c2nn[nH]n2)cc1` [Losartan], in test [1], the “reduction in mean arterial blood pressure” value was 20 mmHg.

`[2H]C([2H])([2H])C([2H])(c1ccc(S(=O)(=O)NC(=O)C(Oc2ccc(C(=O)[O-])cc2CCC)c2ccc3c(c2)OCO3)cc1)C([2H])([2H])[2H].[2H]C([2H])([2H])C([2H])(c1ccc(S(=O)(=O)NC(=O)C(Oc2ccc(C(=O)[O-])cc2CCC)c2ccc3c(c2)OCO3)cc1)C([2H])([2H])[2H].[K+].[K+]` (stereo not drawn) [N-(4-isopropyl(d7)benzenesulfonyl)-α-(4-carboxy-2-n-propylphenoxy)-3,4-methylenedioxyphenylacetamide Dipotassium Salt]: in the test on male mongrel dogs (setting [3]), the “inhibition of ET-1 depressor effect on DBP” value is 70%, the “inhibition of ET-1 pressor effect on DBP” value worked out at 75% and the “inhibition of ET-1 pressor effect on IUP” value came out at 94%. Besides, in the test with male mongrel dogs (setting [4]), the “inhibition of phenylephrine-induced increase in DBP” value came to 33% and the “inhibition of phenylephrine-induced increase in IUP” value came out at 11%. Moreover, the “hemodynamic and prostatic urethral responses to ET-1” value with male mongrel dogs (anesthetized dogs) is “specifically inhibited”. The “change of intra-arterial phenylephrine-induced increases in DBP and IUP after administration” value in the test with male mongrel dogs (one dog, specificity check) is “did not change significantly”. Also, the “effect on ET-1 contraction of the prostate” value with rat prostate is given as “specific inhibition”.
